Like-named read-outs stand apart in the source and are kept apart here.
How the values were obtained:
[1] = test system: ATP-mediated elevation of cytosolic calcium in cells from Alzheimer's disease patients; conditions: for peak elevation of [Ca2+]c: ATP 30 μM, percentage of baseline
Procedure: The changes of cytosolic Ca^2+ concentration ([Ca^2+ ]c) of iPSCs after ATP exposure were measured using jellyfish photoprotein aequorin-based probe. 7.5-1.2×10^4 cells were plated on 12 mm coverslips in 24 well plate, grow to 50-60% confluence then transfected with the cyt-Aeq plasmid using Lipofectamine 3000 Transfection Reagent (Thermo Fisher Scientific) according to the manufacturer's instruction. The next day, the transfected cells were incubated with 5 μM coelenterazine for 1 h in modified Krebs-Ringer buffer (in mM: 140 NaCl, 2.8 KCl, 2 MgCl2, 10 Hepes, 11 glucoses, pH 7.4) supplemented with 1 mM CaCl2 and then were transferred to the perfusion chamber. All aequorin measurements were carried out in KRB, anesthetics were added to the same medium as specified. The experiments were performed in a custom-built aequorin recording system. For extracellular Ca^2+ free experiments, Ca^2+ free buffer was used (KRB without Ca^2+ with 5 mM EGTA). The experiments were terminated by lysing the cells with 100 μM digitonin in a hypotonic Ca^2+-rich solution (10 mM CaCl2 in H2O), thus discharging the remaining aequorin pool. The light signal was collected and calibrated into [Ca^2+ ]c values by an algorithm based on the Ca^2+ response curve of aequorin at physiological conditions of pH, [Mg^2+], and ionic strength, as previously described by Filadi R, et al., PNAS 2015; 201504880; Bonora M, et al., Nat Protoc 2013; 8:2105, each of which is incorporated by reference in its entirety.

5XFAD mice = conditions: for hippocampus-dependent memory (CFC) vs untreated 5XFAD controls / hippocampus-independent memory (FC-cued) vs controls: 6 months of age
[2] = not given; remark: listed apart in the source
[3] = test system: induced pluripotent stem cells (iPSCs) from Alzheimer's disease (AD) patients; conditions: 24 h; for increase of MTT (cell viability): dantrolene 30 μM
Procedure: (§1) Human control (AG02261) and sporadic Alzheimer's disease (AG11414) iPSCs were obtained from John A. Kessler's lab. Familial Alzheimer's disease (GM24675) iPSCs were purchased from Coriell Institute. Each type of iPSC was generated from skin fibroblasts of one heathy human subject or one patient diagnosed of either SAD or FAD. The human pluripotent stem cells were maintained on Matrigel coated plates (BD Biosciences) in mTeSR™1 medium (Catalog #05850, Stem cell Technologies) and were cultured in a 5% CO2 humidified atmosphere at 37° C. The culture medium was changed every day.
The cell viability on different wells in 96-well plates was determined using the MTT (3-(4,5-dimethylthiazol-2-yl)-2,5-diphenyltetrazolium bromide, Sigma-Aldrich, St. Louis, Mo.) reduction assay at 24 h as previously described by Qiao H, et al., Anesthesiology 2017; 127:490; Ren G, et al., Sci Rep 2017; 7:12378, each of which is incorporated by reference in its entirety. After being washed with PBS, the samples were incubated with fresh culture medium containing MTT (0.5 mg/mL in the medium) at 37° C. for 4 h in the dark. The medium was then removed and formazan was solubilized with dimethyl sulfoxide (DMSO). The absorbance was measured at 540 nm with plate reader (Synergy™ H1 microplate reader, BioTek, Winooski, Vt.).

[4] = test system: wild type (WT) and 5XFAD (TG) mice; conditions: all groups
[5] = test system: cortical neurons generated from SAD and FAD patient iPSCs; conditions: dantrolene for 3 days
[6] = 11 months of age
[7] = test system: amyloid plaques in hippocampus and cortex of 5XFAD mice; conditions: IN-DAN, SQ-DAN, ETG and LTG
[8] = test system: LC3II in iPSCs from AD patients
Procedure: Western blotting was performed according to the standard procedure. Total protein extracts from iPSCs cells were obtained by lysing the cells in ice-cold lysis buffer (50 mM Tris-HCl, 150 mM NaCl and 1% Triton X-100) in the presence of a cocktail of protease inhibitors, as described by Hollomon, M G, et al., BMC Cancer 2013; 13:500, which is incorporated by reference in its entirety. After centrifugation, the supernatant was collected, and the total protein was quantified using a bicinchoninic acid (BCA) protein assay kit (Thermo Scientific, Rockford, Ill.). Equal amounts of protein for each lane were loaded and separated on 15% sodium dodecyl sulfate-polyacrylamide gel electrophoresis (SDSPAGE).
After electrophoresis, proteins were transferred onto a polyvinylidene fluoride (PVDF) membrane. The membranes were blocked with 5% fat-free milk dissolved in PBS-T for 1 h at room temperature, and then stained with primary antibody at 4° C. overnight. After the wash with PBS-T, the membranes were incubated with secondary antibodies (HRP conjugated anti-rabbit and anti-mouse IgG) at 1:1,000 dilutions, and β-actin served as a loading control. Signals were detected with an enhanced chemiluminescence detection system (Millipore, Billerica, Mass.) and quantified by scanning densitometry.

[9] = test system: cortical neurons generated from SAD and FAD patient iPSCs; conditions: FAD cells; dantrolene treatment
[10] = test system: NMDA mediated elevation of cytosolic Ca2+ concentrations in iPSC from AD patients
[11] = intranasal 5 mg/kg, 3 times/wk, 4 months; vs vehicle
[12] = mouse, in vivo
[13] = all groups, 10 months of age
[14] = intranasal 5 mg/kg, 3 times/wk, 3 weeks; vs vehicle
[15] = test system: vacuolar-type H+-ATPase (V-ATPase) in lysosomes (LAMP-2) of iPSC; conditions: dantrolene 30 μM
iPSC from AD patients = conditions: compared with DMSO
Procedure: As described previously by Ren G, et al., Sci Rep 2017; 7:12378, which is incorporated by reference in its entirety, LysoTracker® Red DND-99 (Molecular Probe, Eugene, Oreg.) probe stock solution was diluted to a working concentration of 50 nM in HBSS+. IPSCs cells were plated on coverslips coated with Matrigel (BD Biosciences) in mTeSR™1 (Catalog #05850). After being washed three times with HBSS+, the cells were loaded with pre-warmed (37° C.) probe containing HBSS+ and incubated for 1 h at 37° C. Fresh medium was added to replace the labeling solution. The cells were observed by a fluorescent microscope fitted with the correct filter set for the probe used, to determine if the cells were sufficiently fluorescent. LysoTracker Red used an […].

[16] = test system: induced pluripotent stem cells (iPSCs) from Alzheimer's disease (AD) patients; conditions: FAD cells; vs DMSO vehicle
Procedure: as §1

[17] = test system: glutamate mediated elevation of mitochondrial calcium concentration in iPSC-derived neurons; conditions: FAD neurons; glutamate 20 mM; dantrolene 20 μM pretreatment 1 hour
[18] = test system: iPSCs derived immature neurons

Nc1ncnc2c1ncn2[C@@H]1O[C@H](COP(=O)(O)OP(=O)(O)OP(=O)(O)O)[C@@H](O)[C@H]1O [ATP, adenosine triphosphate]
peak elevation of [Ca2+]c ([1]; FAD cells): 128.3% | peak elevation of [Ca2+]c ([1]; SAD cells): 140.4% | peak elevation of [Ca2+]c ([1]; control cells): 84.1%

O=C1CN(/N=C/c2ccc(-c3ccc([N+](=O)[O-])cc3)o2)C(O)=N1 [dantrolene]
hippocampus-dependent memory (CFC) vs untreated 5XFAD controls (5XFAD mice; IN-DAN, ETG): significantly greater memory | hippocampus-independent memory (FC-cued) vs controls (5XFAD mice; IN-DAN, ETG): significantly improved | hippocampus-dependent memory (CFC) vs 5XFAD controls (5XFAD mice; IN-DAN, ETG, 11 months of age): significantly greater | hippocampus-independent memory (FC-cued) vs 5XFAD CON (5XFAD mice; IN-DAN, ETG, 11 months of age): significantly better | hippocampus-independent memory (FC-cued) vs 5XFAD CON (5XFAD mice; IN-DAN, LTG, 11 months): No significant memory improvement | hippocampus-dependent memory (CFC) vs 5XFAD CON (5XFAD mice; IN-DAN, LTG, 11 months of age): significantly improved | hippocampus-dependent memory (CFC) vs untreated 5XFAD controls (5XFAD mice; SQ-DAN, ETG): significantly greater memory | hippocampus-independent memory (FC-cued) vs controls (5XFAD mice; SQ-DAN, ETG): significantly improved | hippocampus-independent memory (FC-cued) vs 5XFAD CON (5XFAD mice; SQ-DAN, ETG, 11 months of age): trended to improve memory but were not statistically different | hippocampus-independent memory (FC-cued) vs 5XFAD CON (5XFAD mice; SQ-DAN, LTG, 11 months): No significant memory improvement | hippocampus-dependent memory (CFC) vs 5XFAD CON (5XFAD mice; SQ-DAN, LTG, 11 months of age): trended to be better but was not statistically significant | plasma alanine aminotransferase (ALT) activity vs control group (5XFAD, 6-month intranasal treatment in LTG): significantly increased | plasma alanine aminotransferase (ALT) activity vs control group (5XFAD, other treatment groups): No significant differences | plasma alanine aminotransferase (ALT) activity vs control group (WT, 6-month subcutaneous treatment in LTG): significantly increased | plasma alanine aminotransferase (ALT) activity vs control group (WT, other treatment group): No significant difference | bodyweight growth curve ([2]; 5XFAD mice, ETG groups): No significant differences | body weight ([2]; WT, 12 months of age): No significant difference | increase of MTT (cell viability) ([3]; iPSC FAD): 67.6% | increase of MTT (cell viability) ([3]; iPSC SAD): 15.1% | cell viability (MTT) ([3]; iPSCs from healthy human subjects (CON), 30 μM): did not affect | number of times the animals crossed the platform ([4]; 10 months): no significant differences | percent time in the target quadrant (probe trial) vs controls ([4]; 10 months): no significant differences | escape latency in place trials vs controls ([4]; 10 months of age): no significant differences | mean number of dendrite intersections at around 150 μM from soma ([5]; FAD cells): significantly greater | mean number of dendrite intersections at around 150 μM from soma ([5]; SAD cells): significantly greater | hepatic pathology (H&E stained sections) ([6]; 5XFAD ETG mice): No gross differences | hepatic pathology (H&E stained sections) ([6]; WT ETG mice): No gross differences | number of amyloid plaques per area (mm^2) in hippocampus and cortex [7]: No significant differences | percent area of the hippocampus and cortex occupied by plaques ([7]; vs control): No significant differences | increase of LC3II level ([8]; FAD iPSCs, P<0.001): 49.4% | increase of LC3II level ([8]; SAD iPSCs, P=0.3483): 47.3% | PSD95 density [9]: significantly greater | synapsin-1 density [9]: significantly increased | NMDA-mediated elevation of [Ca2+]c and AUC [10]: ameliorated | motor function, time spent on the rotarod [11]: No significant differences | motor function (rotarod) vs control group [12]: No significant differences | integrated cytosolic Ca2+ (AUC), ATP+Ca2++DAN vs ATP+Ca2+ ([1]; FAD cells, dantrolene 30 μM pretreatment, 1 mM extracellular Ca2+): significantly reduced | ATP-mediated peak or overall elevation of [Ca2+]c ([1]; absence of extracellular Ca2+ influx, SAD/FAD cells, not statistically significant): only trended to inhibit | integrated cytosolic Ca2+ (AUC), ATP+Ca2++DAN vs ATP+Ca2+ ([1]; control cells, dantrolene 30 μM pretreatment, 1 mM extracellular Ca2+): significantly reduced | peak cytosolic [Ca2+]c, ATP+Ca2++DAN ([1]; dantrolene 30 μM pretreatment, 1 mM extracellular Ca2+, between groups): no significant differences | olfaction (buried food test) ([13]; 5XFAD): No significant differences | olfaction (buried food test) ([13]; WT): No significant differences | olfaction, time to retrieve buried food [14]: No significant differences | V-ATPase in lysosomes (LAMP-2) compared with controls ([15]; FAD cells): no longer significantly reduced | V-ATPase in lysosomes (LAMP-2) compared with controls ([15]; SAD cells): remained significantly lower | lysotracker-positive acidic vesicles (iPSC from AD patients; FAD cells): significantly increased | lysotracker-positive acidic vesicles (iPSC from AD patients; SAD cells): significantly increased | cell proliferation, percentage of BrdU-positive cells [16]: greater proliferation | glutamate-induced overall exposure (AUC) of mitochondrial calcium concentration [17]: abolished | glutamate-induced peak elevation of mitochondrial calcium concentration [17]: abolished | glutamate-induced reduction of cytosolic ATP concentration ([18]; neurons derived from AD patients): significantly inhibited

bafilomycin
LC3II level on co-treatment with dantrolene ([8]; SAD and FAD iPSCs, vs dantrolene alone): further elevated

glutamate
cytosolic ATP production ([18]; glutamate 20-30 mM, 24 hours): dose dependently decreased

Reference: US20220354827A1 (priority 2019, published 2022)
